Reference: US20100298285A1, “Biclycloheteroaryl Compounds as P2x7 Modulators and Uses Thereof” (priority 2006, published 2010)

System: IL-1β release, THP-1 cells
Assay: IL-1β release assay in differentiated THP-1 cells stimulated with BzATP (Example 9)
Assay type: cell-based
Conditions: Homo sapiens; 0.1 μM compound ("*" symbols); differentiated THP-1 cells, 250 uM BzATP; read-out: IL-1β% Inhib. @ 0.3 or 0.1 μM
Summary of the method: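 THP-1 cells differentiated 16 h with 100 ng/mL LPS + 100 ng/mL IFN-γ, re-primed 2 h with fresh LPS 100 ng/mL, pretreated 30 min with compound, then stimulated with BzATP 250 uM final for 45 min. Supernatant IL-1β by ELISA; background-adjusted % inhibition, IC50 from four-parameter logistic fit.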

Row | SMILES | inhibition at 0.1 µM
1 | O=C(Cc1ccc(C(F)(F)F)cc1)Nc1c(Cl)ccc2c1CCN(S(=O)(=O)c1ccc(Cl)cc1F)C2 [Compound 3016] | 0 to 25%
2 | O=C(Cc1ccc(C(F)(F)F)cc1)Nc1c(Cl)ccc2c1CCN(S(=O)(=O)c1ccc(F)cc1Cl)C2 [Compound 3017] | 0 to 25%
3 | O=C(Cc1ccc(C(F)(F)F)cc1)Nc1c(Cl)ccc2c1CCN(S(=O)(=O)c1ccc(F)cc1F)C2 [Compound 3007] | 0 to 25%
4 | Cc1ccc(F)cc1S(=O)(=O)N1CCc2c(ccc(Cl)c2NC(=O)Cc2ccc(C(F)(F)F)cc2)C1 [Compound 3011] | 0 to 25%
5 | O=C(Cc1ccc(C(F)(F)F)cc1)Nc1c(Cl)ccc2c1CCN(S(=O)(=O)c1cccc(C(F)(F)F)c1)C2 [Compound 3032] | 0 to 25%
6 | O=C(Cc1ccc(C(F)(F)F)cc1)Nc1c(Cl)ccc2c1CCN(S(=O)(=O)c1cc(Cl)cc(Cl)c1)C2 [Compound 3015] | 0 to 25%
7 | O=C(Cc1ccc(C(F)(F)F)cc1)Nc1c(Cl)ccc2c1CCN(S(=O)(=O)c1cc(C(F)(F)F)ccc1Cl)C2 [Compound 3022] | 0 to 25%
8 | N#Cc1ccc(S(=O)(=O)N2CCc3c(ccc(Cl)c3NC(=O)Cc3ccc(C(F)(F)F)cc3)C2)cc1 [Compound 3029] | 0 to 25%
9 | O=C(Cc1ccc(C(F)(F)F)cc1)Nc1c(Cl)ccc2c1CCN(S(=O)(=O)c1cc(F)cc(F)c1)C2 [Compound 3006] | 0 to 25%
10 | N#Cc1ccccc1S(=O)(=O)N1CCc2c(ccc(Cl)c2NC(=O)Cc2ccc(C(F)(F)F)cc2)C1 [Compound 3027] | 0 to 25%

Same assay, conditions: Homo sapiens; 0.3 μM compound ("+" symbols); differentiated THP-1 cells, 250 uM BzATP; read-out: IL-1β% Inhib. @ 0.3 or 0.1 μM

Row | SMILES | inhibition at 0.3 µM
11 | O=C(Cc1ccc(C(F)(F)F)c(F)c1)Nc1cccc2c1CCN(CC(O)c1ccc(F)cc1)C2 (stereo not drawn) [Compound 3065, N-{2-[2-(4-Fluoro-phenyl)-2-hydroxy-ethyl]-1,2,3,4-tetrahydro-isoquinolin-5-yl}-2-(3-fluoro-4-trifluoromethyl-phenyl)-acetamide] | 51 to 75%
12 | O=C(Cc1ccc(C(F)(F)F)c(F)c1)Nc1cccc2c1CCN(C(=O)[C@H]1COc3ccccc3O1)C2 [Compound 3037] | ≥ 76%
13 | O=C(Cc1cccc(C(F)(F)F)c1F)Nc1c(Cl)ccc2c1CCN(C(=O)c1ccc(Cl)cc1)C2 [Compound 3139] | 0 to 25%
14 | O=C(Cc1cccc(C(F)(F)F)c1F)Nc1c(Cl)ccc2c1CCN(C(=O)c1ccc(F)cc1)C2 [Compound 3154] | 0 to 25%
15 | O=C(Cc1ccc(C(F)(F)F)c(F)c1)Nc1c(Cl)ccc2c1CCN(C(=O)Cc1ccc(Cl)cc1)C2 [Compound 3105] | 26 to 50%
16 | Cc1ccc(C(=O)N2CCc3c(ccc(Cl)c3NC(=O)Cc3cccc(C(F)(F)F)c3F)C2)cc1 [Compound 3183] | 0 to 25%
17 | Cc1cc(C(=O)N2CCc3c(ccc(Cl)c3NC(=O)Cc3cccc(C(F)(F)F)c3F)C2)nn1C [Compound 3181] | 0 to 25%
18 | O=C(Cc1cccc(C(F)(F)F)c1F)Nc1c(Cl)ccc2c1CCN(C(=O)COCc1ccccc1)C2 [Compound 3160] | 0 to 25%
19 | COc1ccccc1C(=O)N1CCc2c(ccc(Cl)c2NC(=O)Cc2ccc(C(F)(F)F)c(F)c2)C1 [Compound 3120] | 0 to 25%
20 | O=C(Cc1ccc(C(F)(F)F)c(F)c1)Nc1cccc2c1CCN(C(=O)CC1CCCCCC1)C2 [Compound 3043] | ≥ 76%
21 | O=C(Cc1ccc(C(F)(F)F)c(F)c1)Nc1c(Cl)ccc2c1CCN(C(=O)c1ccncc1)C2 [Compound 3126] | 0 to 25%
22 | O=C(Cc1cccc(C(F)(F)F)c1F)Nc1c(Cl)ccc2c1CCN(C(=O)C1CCCCC1)C2 [Compound 3147] | 0 to 25%
23 | O=C(Cc1ccc(C(F)(F)F)c(F)c1)Nc1c(Cl)ccc2c1CCN(C(=O)c1cccc(Cl)c1Cl)C2 [Compound 3115] | 0 to 25%
24 | O=C(Cc1ccc(C(F)(F)F)c(F)c1)Nc1c(Cl)ccc2c1CCN(C(=O)/C=C/c1ccccc1)C2 [Compound 3118] | 26 to 50%
25 | O=C(Cc1ccc(C(F)(F)F)c(F)c1)Nc1cccc2c1CCN(CC(O)CCl)C2 (stereo not drawn) [Compound 3057, N-[2-(3-Chloro-2-hydroxy-propyl)-1,2,3,4-tetrahydro-isoquinolin-5-yl]-2-(3-fluoro-4-trifluoromethyl-phenyl)-acetamide] | 26 to 50%
26 | CCC(O)CN1CCc2c(cccc2NC(=O)Cc2ccc(C(F)(F)F)c(F)c2)C1 (stereo not drawn) [Compound 3058, 2-(3-Fluoro-4-trifluoromethyl-phenyl)-N-[2-(2-hydroxy-butyl)-1,2,3,4-tetrahydro-isoquinolin-5-yl]-acetamide] | 26 to 50%
27 | O=C(Cc1ccc(C(F)(F)F)c(F)c1)Nc1c(Cl)ccc2c1CCN(C(=O)C1CCCC1)C2 [Compound 3080] | 51 to 75%
28 | O=C(Cc1ccc(C(F)(F)F)c(F)c1)Nc1c(Cl)ccc2c1CCN(C(=O)c1c(Cl)cccc1Cl)C2 [Compound 3068] | 0 to 25%
29 | O=C(Cc1ccc(C(F)(F)F)c(F)c1)Nc1cccc2c1CCN(CC(O)c1ccc(Cl)cc1)C2 (stereo not drawn) [Compound 3066] | 51 to 75%

Row | SMILES | inhibition at 0.3 µM
30 | CC(Oc1ccccc1)C(=O)N1CCc2c(ccc(Cl)c2NC(=O)Cc2ccc(C(F)(F)F)c(F)c2)C1 (stereo not drawn) [Compound 3135] | 26 to 50%
31 | O=C(Cc1cccc(C(F)(F)F)c1F)Nc1c(Cl)ccc2c1CCN(C(=O)CCC1CCCCC1)C2 [Compound 3194] | 26 to 50%
32 | CC(C)CC(=O)N1CCc2c(ccc(Cl)c2NC(=O)Cc2cccc(C(F)(F)F)c2F)C1 [Compound 3158] | 0 to 25%
33 | CC(C)C(=O)N1CCc2c(ccc(Cl)c2NC(=O)Cc2ccc(C(F)(F)F)c(F)c2)C1 [Compound 3088] | 0 to 25%
34 | COc1ccc(OC)c(CC(=O)N2CCc3c(ccc(Cl)c3NC(=O)Cc3ccc(C(F)(F)F)c(F)c3)C2)c1 [Compound 3081] | 0 to 25%
35 | C[C@H](N)C(=O)N1CCc2c(cccc2NC(=O)Cc2ccc(C(F)(F)F)c(F)c2)C1 [Compound 3054] | 0 to 25%
36 | O=C(Cc1cccc(C(F)(F)F)c1F)Nc1c(Cl)ccc2c1CCN(C(=O)c1ccc(C(F)(F)F)cc1F)C2 [Compound 3169] | 0 to 25%
37 | Cc1ccc(F)c(C(=O)N2CCc3c(ccc(Cl)c3NC(=O)Cc3cccc(C(F)(F)F)c3F)C2)c1Cl [Compound 3171] | 0 to 25%
38 | O=C(Cc1ccc(C(F)(F)F)c(F)c1)Nc1cccc2c1CCN(C(=O)C1CCOC1)C2 (stereo not drawn) [Compound 3039] | 26 to 50%
39 | Cc1ccc(C(=O)N2CCc3c(ccc(Cl)c3NC(=O)Cc3ccc(C(F)(F)F)c(F)c3)C2)cc1 [Compound 3119] | 26 to 50%
40 | CN(C)c1ccc(C(=O)N2CCc3c(ccc(Cl)c3NC(=O)Cc3cccc(C(F)(F)F)c3F)C2)cc1 [Compound 3159] | 0 to 25%
41 | O=C(Cc1ccc(C(F)(F)F)c(F)c1)Nc1c(Cl)ccc2c1CCN(C(=O)c1ccc(Cl)cc1)C2 [Compound 3073] | 0 to 25%
42 | O=C(Cc1ccc(C(F)(F)F)c(F)c1)Nc1cccc2c1CCN(C(=O)COC1CCNCC1)C2 [Compound 3052] | 0 to 25%
43 | Cc1ccc2c(c1NC(=O)Cc1ccc(C(F)(F)F)c(F)c1)CCN(C(=O)[C@H]1CCCN1)C2 [Compound 3061, 2-(3-Fluoro-4-trifluoromethyl-phenyl)-N-[6-methyl-2-((R)-pyrrolidine-2-carbonyl)-1,2,3,4-tetrahydro-isoquinolin-5-yl]-acetamide] | ≥ 76%
44 | O=C(Cc1ccc(C(F)(F)F)c(F)c1)Nc1c(Cl)ccc2c1CCN(C(=O)COCc1ccccc1)C2 [Compound 3097] | 0 to 25%
45 | CC(C)(C)C(=O)N1CCc2c(ccc(Cl)c2NC(=O)Cc2ccc(C(F)(F)F)c(F)c2)C1 [Compound 3092] | ≥ 76%
46 | CC(C)(C)c1ccc(C(=O)N2CCc3c(ccc(Cl)c3NC(=O)Cc3ccc(C(F)(F)F)c(F)c3)C2)cc1 [Compound 3124] | 0 to 25%
47 | O=C(Cc1cccc(C(F)(F)F)c1F)Nc1c(Cl)ccc2c1CCN(C(=O)CCc1ccccc1)C2 [Compound 3151] | 26 to 50%

Same assay, conditions: Homo sapiens; THP-1 cells, BzATP 250 uM, four parameter logistic fit

Row | IC50 | SMILES
48 | 0.206 µM | O=C(Cc1ccc(C(F)(F)F)c(F)c1)Nc1cccc2c1CCN(CC(O)c1ccc(F)cc1)C2 (stereo not drawn) [Compound 3065, N-{2-[2-(4-Fluoro-phenyl)-2-hydroxy-ethyl]-1,2,3,4-tetrahydro-isoquinolin-5-yl}-2-(3-fluoro-4-trifluoromethyl-phenyl)-acetamide]
49 | 0.145 µM | O=C(Cc1ccc(C(F)(F)F)c(F)c1)Nc1cccc2c1CCN(C(=O)[C@H]1COc3ccccc3O1)C2 [Compound 3037]
50 | 0.0825 µM | O=C(Cc1ccc(C(F)(F)F)c(F)c1)Nc1cccc2c1CCN(C(=O)CC1CCCCCC1)C2 [Compound 3043]
51 | 0.427 µM | O=C(Cc1ccc(C(F)(F)F)c(F)c1)Nc1cccc2c1CCN(CC(O)CCl)C2 (stereo not drawn) [Compound 3057, N-[2-(3-Chloro-2-hydroxy-propyl)-1,2,3,4-tetrahydro-isoquinolin-5-yl]-2-(3-fluoro-4-trifluoromethyl-phenyl)-acetamide]
52 | 0.338 µM | CCC(O)CN1CCc2c(cccc2NC(=O)Cc2ccc(C(F)(F)F)c(F)c2)C1 (stereo not drawn) [Compound 3058, 2-(3-Fluoro-4-trifluoromethyl-phenyl)-N-[2-(2-hydroxy-butyl)-1,2,3,4-tetrahydro-isoquinolin-5-yl]-acetamide]
53 | 0.0602 µM | Cc1ccc2c(c1NC(=O)Cc1ccc(C(F)(F)F)c(F)c1)CCN(C(=O)C1CCCC1)C2 [Compound 3208]
54 | 0.083 µM | Cc1ccc2c(c1NC(=O)Cc1ccc(C(F)(F)F)c(F)c1)CCN(S(=O)(=O)C(C)C)C2 [Compound 3414]
55 | 0.0514 µM | CCS(=O)(=O)N1CCc2c(ccc(Cl)c2NC(=O)Cc2ccc(C(F)(F)F)c(F)c2)C1 [Compound 3272]
56 | 0.219 µM | O=C(Cc1ccc(C(F)(F)F)c(F)c1)Nc1cccc2c1CCN(CC(O)c1ccc(Cl)cc1)C2 (stereo not drawn) [Compound 3066]
57 | 0.203 µM | Cc1ccc2c(c1NC(=O)Cc1ccc(C(F)(F)F)c(F)c1)CCN(C(=O)C(C)(C)CO)C2 [Compound 3472]
58 | 0.171 µM | COc1ccc2c(c1NC(=O)Cc1ccc(C(F)(F)F)c(F)c1)CCN(C(=O)C(C)(C)CO)C2 [Compound 3479, 2-(3-Fluoro-4-trifluoromethyl-phenyl)-N-[2-(3-hydroxy-2,2-dimethyl-propionyl)-6-methoxy-1,2,3,4-tetrahydro-isoquinolin-5-yl]-acetamide]
59 | 0.0322 µM | Cc1ccc2c(c1NC(=O)Cc1ccc(C(F)(F)F)c(F)c1)CCN(C(=O)C(C)(C)O)C2 [Compound 3470]
60 | 0.684 µM | C[C@H](N)C(=O)N1CCc2c(cccc2NC(=O)Cc2ccc(C(F)(F)F)c(F)c2)C1 [Compound 3054]
61 | 0.443 µM | O=C(Cc1ccc(C(F)(F)F)c(F)c1)Nc1cccc2c1CCN(C(=O)C1CCOC1)C2 (stereo not drawn) [Compound 3039]
62 | 0.0525 µM | Cc1ccc2c(c1NC(=O)Cc1ccc(C(F)(F)F)c(F)c1)CCN(C(=O)C1CC1)C2 [Compound 3469]
63 | 0.891 µM | O=C(Cc1ccc(C(F)(F)F)c(F)c1)Nc1cccc2c1CCN(C(=O)COC1CCNCC1)C2 [Compound 3052]
64 | 0.425 µM | O=C(Cc1ccc(C(F)(F)F)c(F)c1)Nc1cccc2c1CCN(CC(O)Cc1ccccc1)C2 (stereo not drawn) [Compound 3257]
65 | 0.0351 µM | Cc1ccc2c(c1NC(=O)Cc1ccc(C(F)(F)F)c(F)c1)CCN(C(=O)[C@H]1CCCN1)C2 [Compound 3061, 2-(3-Fluoro-4-trifluoromethyl-phenyl)-N-[6-methyl-2-((R)-pyrrolidine-2-carbonyl)-1,2,3,4-tetrahydro-isoquinolin-5-yl]-acetamide]
66 | 0.325 µM | COc1ccc2c(c1NC(=O)Cc1ccc(C(F)(F)F)c(F)c1)CCN(C(=O)C1(O)CC1)C2 [Compound 3476, 2-(3-Fluoro-4-trifluoromethyl-phenyl)-N-[2-(1-hydroxy-cyclopropanecarbonyl)-6-methoxy-1,2,3,4-tetrahydro-isoquinolin-5-yl]-acetamide]
